Measurements published in US20090170834A1, “Fused Pyrimidones and Thiopyrimidones, and Uses Thereof” (PROLEXYS PHARMACEUTICALS, INC., priority 2005, published 2009).

test system: engineered tumorigenic cells; assay: Sytox primary screen, inhibition of growth of tumorigenic cells; assay type: cell-based; settings: Homo sapiens; compound in DMSO, 48 hours exposure, Sytox readout
Procedure: The ability of Compounds 1 and 2, dissolved in DMSO, to inhibit the growth of normal and tumorigenic cells was measured. The compounds were assayed by the Sytox primary screen, a phenotypic assay which monitors alterations in cell survival-proliferation as a result of compound treatment. It was devised as high throughput method to identify compounds which specifically alter the growth potential of cells harboring the causative mutations found in cancer patients while not affecting the growth of normal cells. The assay relies upon an inexpensive, simple and reliable readout of a membrane impermeable fluorescent dye (Sytox, from Molecular Probes) which binds to nucleic acid. In healthy cells, no signal is detected because the cell's membrane is intact and the dye will not enter. However, if a cell's membrane is compromised as a result of apoptosis or necrosis, a fluorescent signal proportional to the number of similarly affected cells will be detected. By utilizing a two-step readout (final read in the presence of detergent to permit labeling of all cells), the assay can identify compounds which produce cytostasis, cytotoxicity and/or mitogenesis. The first read or “dead cell” read, provides an estimate of the toxicity of a given compound by indicating the number of dead or dying cells in the culture at the time of assay. […]

Row | SMILES | IC50
1 | CCOc1ccccc1-n1c(C(C)N2CCN(C(=O)COc3ccc(Cl)cc3)CC2)nc2ccncc2c1=O (stereo not drawn) [Compound 1, 2-(1-(4-(2-(4-chlorophenoxy)acetyl)piperazin-1-yl)ethyl)-3-(2-ethoxyphenyl)pyrido[4,5-d]pyrimidin-4(3H)-one] | ~10 µM
2 | CCOc1ccccc1-n1c(C(C)N2CCN(C(=O)COc3ccc(Cl)cc3)CC2)nc2c(cnn2-c2ccccc2)c1=O (stereo not drawn) [Compound 2, 6-(1-(4-(2-(4-chlorophenoxy)acetyl)piperazin-1-yl)ethyl)-5-(2-ethoxyphenyl)-1-phenyl-1H-pyrazolo[3,4-d]pyrimidin-4(5H)-one] | ~10 µM

test system: HT-1080 cells; assay: Inhibition of growth of HT-1080 cells (Sytox assay); assay type: cell-based; settings: Homo sapiens; HT-1080 fibrosarcoma cells, N-ras codon 12 mutation; compound in DMSO, 48 hours exposure
Procedure: The ability of Compounds 1 and 2, dissolved in DMSO, to inhibit the growth of normal and tumorigenic cells was measured. The compounds were assayed by the Sytox primary screen, a phenotypic assay which monitors alterations in cell survival-proliferation as a result of compound treatment. It was devised as high throughput method to identify compounds which specifically alter the growth potential of cells harboring the causative mutations found in cancer patients while not affecting the growth of normal cells. The assay relies upon an inexpensive, simple and reliable readout of a membrane impermeable fluorescent dye (Sytox, from Molecular Probes) which binds to nucleic acid. In healthy cells, no signal is detected because the cell's membrane is intact and the dye will not enter. However, if a cell's membrane is compromised as a result of apoptosis or necrosis, a fluorescent signal proportional to the number of similarly affected cells will be detected. By utilizing a two-step readout (final read in the presence of detergent to permit labeling of all cells), the assay can identify compounds which produce cytostasis, cytotoxicity and/or mitogenesis. The first read or “dead cell” read, provides an estimate of the toxicity of a given compound by indicating the number of dead or dying cells in the culture at the time of assay. The second read or “total cell” read, captures both the cumulative effects of cytoxicity in reducing the size of the cell population as well as any cytostatic or anti-proliferative effects a test compound may exert on the cells in the test population in the absence of toxicity.
Cells were seeded overnight in 96 well plates at densities that without treatment would permit 95% confluence in the wells 72 hours later. The following day, the cells were exposed to test compounds in a dilution series for a period of 48 hours. Following this incubation period, the Sytox reagent was added to the cultures at the manufacturer's recommended concentration and the dead cell fluorescence read was taken. After completion of this measurement, the detergent Saponin was added to each well of the cultures to permeabilize the membranes allowing the Sytox reagent to enter every cell, thereby facilitating measurement of the total number of cells remaining in the culture.
The ability of various compounds of the invention, in DMSO, to inhibit the growth of HT-1080 cells was measured. The HT-1080 cell line used in these experiments was derived from a patient with fibrosarcoma and harbors an activating mutation in the N-ras gene at codon 12. The compound was assayed using the assay described in Example 6. The results of the assay are shown in the table below, where the activity corresponds to the following ranges: A—less than 10 nM, B—10-100 nM, C—100-1000 nM, D—1000-2000 nM, E—greater than 2000 nM.

Row | SMILES | IC50
3 | CCOc1ccccc1-n1c(CN2CCNCC2)nc2c(cnn2-c2ccccc2)c1=O [Compound 3, 5-(2-ethoxyphenyl)-1-phenyl-6-(piperazin-1-ylmethyl)-1H-pyrazolo[3,4-d]pyrimidin-4(5H)-one] | > 2000 nM
4 | CCOc1ccccc1-n1c(CN2CCNCC2)nc2sccc2c1=O [Compound 4, 3-(2-ethoxyphenyl)-2-(piperazin-1-ylmethyl)thieno[2,3-d]pyrimidin-4(3H)-one] | 100 to 1000 nM
5 | CCOc1ccccc1-n1c(CN2CCCNCC2)nc2sccc2c1=O [Compound 5, 2-((1,4-diazepan-1-yl)methyl)-3-(2-ethoxyphenyl)thieno[2,3-d]pyrimidin-4(3H)-one] | < 10 nM
6 | CCOc1ccccc1-n1c(CN2CCCN(C)CC2)nc2sccc2c1=O [Compound 6, 3-(2-ethoxyphenyl)-2-((4-methyl-1,4-diazepan-1-yl)methyl)thieno[2,3-d]pyrimidin-4(3H)-one] | < 10 nM
7 | CCOc1ccccc1-n1c(CN2CCCN(CC)CC2)nc2sccc2c1=O [Compound 7, 3-(2-ethoxyphenyl)-2-((4-ethyl-1,4-diazepan-1-yl)methyl)thieno[2,3-d]pyrimidin-4(3H)-one] | 10 to 100 nM
8 | CCOc1ccccc1-n1c(CN2CCNCC2)nc2cnccc2c1=O [Compound 8, 3-(2-ethoxyphenyl)-2-(piperazin-1-ylmethyl)pyrido[3,4-d]pyrimidin-4(3H)-one] | > 2000 nM
9 | CCOc1ccccc1-n1c(CN2CCCN(C)CC2)nc2cnccc2c1=O [Compound 9, 3-(2-ethoxyphenyl)-2-((4-methyl-1,4-diazepan-1-yl)methyl)pyrido[3,4-d]pyrimidin-4(3H)-one] | > 2000 nM
